Data reported in patent US9557338B2 (SIGNAL PHARMACEUTICALS, LLC, priority 2012, dated 2017).
pIC50: −log10 of the molar value. Where two headings read alike, the source gives them in different places.

Experiments:
Assay type in all cases: cell-based
Phospho-4E-BP1(T46) = test: Luminex multiplex assay, Phospho-4E-BP1(T46); conditions: read-out: p-4E-BP1(T46)
Text: Determination of Phospho-GSK3β(S9), Phospho-PRAS40(T246) and Phospho-4E-BP1(T46) and the Effect of Compound 1 or Rapamycin.
The multiplex Luminex assay format differs from conventional enzyme-linked immunosorbent assay (ELISA) in that the multiplex capture antibody is attached to a polystyrene bead whereas the ELISA capture antibody is attached to the microplate well. The use of the suspension bead-based technology enables the multiplexing capabilities of the Luminex assays. The xMAP® technology uses 5.6 micron polystyrene microspheres, which are internally dyed with red and infrared fluorophores of differing intensities. Each bead is given a unique number, or bead region, allowing differentiation of one bead from another. Beads covalently bound to different specific antibodies can be mixed in the same assay, utilizing a 96-well microplate format. At the completion of the sandwich immunoassay, beads can be read, using the Luminex 100™ or Luminex 200 detection system, in single-file by dual lasers for classification and quantification of each analyte. The Akt-Pathway Phospho 5-plex kit used was custom made and includes the ability to simultaneously measure p-GSK3β (S9), p-PRAS40(T246), and p-4E-BP1(T46).
Cells were plated at the required density. The cells were treated with either Compound 1 or rapamycin over a range of concentrations for 1 hour in 5% CO2 at 37° C. Compound 1 and rapamycin were used at the same concentrations as for the proliferation assay. As for the cell proliferation assay, a reference standard was included in the assay for PC3 cells and the coefficient of variation for assay of p-GSK3β(S9) was 37.8% (n=30), p-PRAS40(T246) was 27.8% (n=30) and for p4E-BP1(T46) was 13.5% (n=4). For three cell lines (HCT-116, MDA-MB-231 and HT29) in the assay for phosphorylation of GSK3β, PRAS40 and 4E-BP1, IGF-I stimulation (500 ng/mL, recombinant human IGF-I) for the last 10 min of incubation was used. The media was aspirated from the wells and the plate was placed on ice. Then 35 μL of Lysis Buffer was added to each well and incubated on ice for at least 30 minutes. During the incubation, the standard curve for each phosphoprotein was prepared. The standards provided were reconstituted and serial dilutions were prepared according to the manufacturer's instructions. At the end of the cell lysis step, […] of the lysate was transferred to a V-bottom plate and spun at 4° C. at 2000 rpm for 5 minutes. Both the 1× Luminex bead and 1× detector antibody solutions were prepared during this time. The 1× bead solution was vortexed and 25 μL was added into each well of a black round bottom plate. Then 50 μL of the 1× detector antibody was added to each well. Fifty microliters (50 μL) of the prepared standards were added to the designated wells. Then 25 μL of the assay diluent was added to each well designated for the compound-treated cell lysates. At the end of the spin, 25 μL of cell lysate was added to the corresponding wells of the black assay plate. The assay plate was covered with the white plate lid and incubated for 3 hours at room temperature on an orbital shaker.
Approximately 10-15 minutes prior to the end of the first incubation, the secondary antibody solution was prepared according to the vendor's protocol. Goat anti-rabbit R-phycoerythrin red fluorescent protein (RPE) supplied as a 10× concentrate was diluted to generate a 1× goat anti-rabbit RPE stock. The 96-well filter plate was pre-wet with 200 μL of 1× Working wash solution. At the end of the 3 hour incubation, a multichannel pipette was used to transfer the entire contents from each assay well into the wells of the filter plate. The liquid from the wells was removed by aspiration with the vacuum manifold. Then 200 μL of 1× Working wash solution was added into each well. The wash solution was aspirated using the vacuum manifold after 15-30 seconds. This wash step was repeated one time. The bottom of the plate was blotted on clean paper towels to remove residual liquid. […]

HT-29 = test: Growth inhibition (cell proliferation assay), HT-29; conditions: read-out: Compound 1 Growth Inhibition IC50
S6RP(S235/S236) = test: Inhibition of S6RP(S235/S236) phosphorylation in cell lines; conditions: read-out: p-S6RP(S235/S236)
Akt(S473) = test: Inhibition of Akt(S473) phosphorylation in cell lines; conditions: read-out: p-Akt (S473)
Phospho-GSK3β(S9) = test: Luminex multiplex assay, Phospho-GSK3β(S9)
Outline: (§1)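 Cells (PC3; HCT-116, MDA-MB-231 and HT29 with 500 ng/mL recombinant human IGF-I for the final 10 min) treated with compound or rapamycin over a concentration range for 1 h at 37° C, 5% CO2. Lysates read by bead-based Luminex sandwich immunoassay, 3 h at room temperature, RPE anti-rabbit detection, quantified against phosphoprotein standard curves.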

Phospho-PRAS40(T246) = test: Luminex multiplex assay, Phospho-PRAS40(T246)
Outline: as §1

A549 = test: Growth inhibition (cell proliferation assay), A549; conditions: read-out: Compound 1 Growth Inhibition IC50
NCI-H23 = test: Growth inhibition (cell proliferation assay), NCI-H23; conditions: read-out: Compound 1 Growth Inhibition IC50
mTORC1 = target: T1, mTORC1 (Homo sapiens, UniProt P42345); test: Inhibition of mTORC1 measured by phosphorylation of pathway markers (FIG. 1); conditions: phosphorylation of pathway markers Akt, PRAS40, GSK-3β, p70S6, S6, 4-EBP1
T1 construct: endogenous in cells; host or cells: PC3, A549, HCT116, U-87 MG, MDA-MB-231, NCI-H23, HT-29
Text: The activity of the TORC1 complex can be followed from the phosphorylation status of 4E-BP1(T46), a direct substrate of mTOR kinase and S6RP(S235/S236), a downstream substrate from mTOR. The activity of the TORC2 complex can be followed directly from the phosphorylation status of Akt(S473) and indirectly from the phosphorylation status of AKT substrates, GSK3β(S9) and PRAS40(T246). […] Full activation of Akt requires an additional phosphorylation on T308 that is done by PDK1 and is speculated to be co-dependent with the TORC2 phosphorylation of the Akt(S473).

## CO[C@H]1CC[C@H](N2C(=O)CNc3ncc(-c4ccc(C(C)(C)O)nc4)nc32)CC1 [Compound 1, 7-(6-(2-hydroxypropan-2-yl)pyridin-3-yl)-1-((1r,4r)-4-methoxycyclohexyl)-3,4-dihydropyrazino-[2,3-b]pyrazin-2(1H)-one]
Phospho-4E-BP1(T46); A549
  pIC50: 6.48
Phospho-4E-BP1(T46); HCT116, IGF-I stimulation
  pIC50: 6.41
Phospho-4E-BP1(T46); HT-29, IGF-I stimulation
  pIC50: 7.15
Phospho-4E-BP1(T46); MDA-MB-231, IGF-I stimulation
  pIC50: 6.92
Phospho-4E-BP1(T46); NCI-H23
  pIC50: 6.92
Phospho-4E-BP1(T46); PC3
  pIC50: 6.39
Phospho-4E-BP1(T46); U-87 MG
  pIC50: 5.87
HT-29
  pIC50: < 4.70
S6RP(S235/S236); A549
  pIC50: 7.40
S6RP(S235/S236); HCT116
  pIC50: 7.10
S6RP(S235/S236); HT-29
  pIC50: 8.00
S6RP(S235/S236); MDA-MB-231
  pIC50: 7.52
S6RP(S235/S236); NCI-H23
  pIC50: 7.15
S6RP(S235/S236); PC3
  pIC50: 7.70
S6RP(S235/S236); U-87 MG
  pIC50: 6.72
Akt(S473); A549
  pIC50: 6.92
Akt(S473); HCT116
  pIC50: 7.00
Akt(S473); HT-29
  pIC50: 6.60
Akt(S473); MDA-MB-231
  pIC50: 7.40
Akt(S473); NCI-H23
  pIC50: 7.00
Akt(S473); PC3
  pIC50: 8.00
Akt(S473); U-87 MG
  pIC50: 6.82
Phospho-GSK3β(S9); HCT116, IGF-I stimulation, read-out: p-GSK3β (S9)
  pIC50: 6.66
Phospho-GSK3β(S9); HCT116 cell line, IGF, read-out: Luminex GSK-3β (IGF)
  pIC50: 6.44
Phospho-GSK3β(S9); HT-29, IGF-I stimulation, read-out: p-GSK3β (S9)
  pIC50: < 5.70
Phospho-GSK3β(S9); NCI-H23, read-out: p-GSK3β (S9)
  pIC50: < 5.70
Phospho-GSK3β(S9); PC3, read-out: p-GSK3β (S9)
  pIC50: 6.64
Phospho-GSK3β(S9); U87MG cell line, read-out: Luminex GSK-3β
  pIC50: 6.55
Phospho-GSK3β(S9); U-87 MG, read-out: p-GSK3β (S9)
  pIC50: 6.55
Phospho-PRAS40(T246); A549, read-out: p-PRAS40 (T246)
  pIC50: 6.12
Phospho-PRAS40(T246); HCT116, IGF-I stimulation, read-out: p-PRAS40 (T246)
  pIC50: 6.37
Phospho-PRAS40(T246); HCT116 cell line, IGF, read-out: Luminex PRAS40 (IGF)
  pIC50: 6.37
Phospho-PRAS40(T246); HT-29, IGF-I stimulation, read-out: p-PRAS40 (T246)
  pIC50: 6.46
Phospho-PRAS40(T246); MDA-MB-231, IGF-I stimulation, read-out: p-PRAS40 (T246)
  pIC50: 6.55
Phospho-PRAS40(T246); NCI-H23, read-out: p-PRAS40 (T246)
  pIC50: 6.72
Phospho-PRAS40(T246); PC3, read-out: p-PRAS40 (T246)
  pIC50: 6.85
Phospho-PRAS40(T246); U87MG cell line, read-out: Luminex PRAS40
  pIC50: 6.44
Phospho-PRAS40(T246); U-87 MG, read-out: p-PRAS40 (T246)
  pIC50: 6.44
A549
  pIC50: 6.49
NCI-H23
  pIC50: 5.43
mTORC1
  inhibition of mTORC1: inhibition
